{
  "source": "paper PMC2955292",
  "about": "(Chemistry & biology, 2010)",
  "key": {"E. coli ClpP [1]": {"biological_target": "T1, E. coli ClpP (Escherichia coli, UniProt P0A6G7)", "T1 sequence (P0A6G7 15-207)": "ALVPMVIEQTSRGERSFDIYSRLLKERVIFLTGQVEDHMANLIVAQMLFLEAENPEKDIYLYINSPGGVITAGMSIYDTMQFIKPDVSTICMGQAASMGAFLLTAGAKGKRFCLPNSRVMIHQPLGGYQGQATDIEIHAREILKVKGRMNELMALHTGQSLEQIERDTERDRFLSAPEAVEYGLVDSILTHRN", "test": "Peptidase assay, oxidized insulin B chain", "assay_type": "biochemical", "conditions": "30-residue peptide; pH 8.0, 0.1 M KCl, 37 °C; Supplemental Table 1"}, "[2]": {"system": "interaction between ClpP and ClpA", "test": "ClpP-ClpA interaction", "assay_type": "binding, Escherichia coli", "conditions": "Figure S2"}, "ClpP tetradecamer": {"system": "ClpP tetradecamer", "test": "Sedimentation velocity, oligomeric state of ClpP", "parameters": "species or system Escherichia coli"}, "ClpPin [3]": {"system": "ClpPin", "test": "Negative stain EM, translocation of β-casein into ClpPin", "assay_type": "biochemical, Escherichia coli"}, "ClpPin [4]": {"system": "ClpPin", "test": "Negative stain EM, translocation of EGFP-SsrA into ClpPin", "assay_type": "biochemical, Escherichia coli", "conditions": "ADEP1 vs no compound, Figure S3B"}, "E. coli ClpP [5]": {"biological_target": "T1, E. coli ClpP", "test": "Crystal structure of ClpP-ADEP1 complex", "assay_type": "binding"}, "ClpP N-terminal loop": {"system": "ClpP N-terminal loop", "test": "Limited proteolysis of ClpP with Staphylococcus aureus protease V8", "assay_type": "biochemical, Escherichia coli", "conditions": "presence vs absence of ADEP1; cleavage at Glu8 and Glu14; Figure S6"}, "E. coli ClpP [6]": {"biological_target": "T1, E. coli ClpP", "conditions": "Figure S1A, SDS-PAGE"}, "E. coli ClpP [7]": {"biological_target": "T1, E. coli ClpP"}, "ClpP": {"system": "ClpP", "conditions": "in the presence of ADEP1; ref Brotz-Oesterhelt et al., 2005; cited from earlier work"}, "E. coli ClpP [8]": {"biological_target": "T1, E. coli ClpP", "test": "biochemical"}},
  "note": "Values joined by “and” are separate entries in the source; they are usually repeats but may differ in a detail not shown here. Equal values may be shown once. “Also recorded” adds a separate entry of the source. Positions of bridges follow the written chain, without caps; N, C: chain ends. Non-standard residues stand in square brackets, D forms with d. Residues, ends and D or L forms follow the SMILES beside them. *: point of attachment. Octatrienoyl(2E,4E,6E) = C/C=C/C=C/C=C/C(=O)*; Pro(4R-Me) = C[C@H]1CN[C@H](C(=O)O)C1; NMeA = CN[C@@H](C)C(=O)O",
  "data": [
    {"compound": "C/C=C/C=C/C=C/C(=O)N[C@@H](Cc1ccccc1)C(=O)N[C@H]1COC(=O)[C@@H]2C[C@@H](C)CN2C(=O)[C@H](C)NC(=O)[C@H](C)N(C)C(=O)[C@@H]2CCCN2C1=O", "note": "[ADEP1] ({Octatrienoyl(2E,4E,6E)}-FSP[NMeA]A[Pro(4R-Me)]; ester 2-C; N-terminus assumed)", "values": [
      {"measurement": "cleavage of oxidized insulin β chain", "setting": "E. coli ClpP [1]", "result": "activated cleavage"},
      {"measurement": "interaction between ClpP and ClpA", "setting": "[2]", "result": "blocked interaction between ClpP and ClpA"},
      {"measurement": "effect on ClpP tetradecamer formation", "setting": "ClpP tetradecamer", "result": "enhances rather than disrupts tetradecamer formation"},
      {"measurement": "stain penetration into ClpPin without β-casein", "setting": "ClpPin [3]; ADEP1 alone, absence of β-casein, data not shown", "result": "did not prevent stain penetration into the ClpPin chamber"},
      {"measurement": "shift of particle intensity distribution, β-casein translocation", "setting": "ClpPin [3]; ClpPin, ADEP1 vs no compound, Figure S3A", "result": "significant shift of particles to higher intensity values"},
      {"measurement": "shift of particle intensity distribution, EGFP-SsrA", "setting": "ClpPin [4]", "result": "no significant differences"},
      {"measurement": "conformation of N-terminal loops on ADEP1 binding", "setting": "E. coli ClpP [5]", "result": "locks the N-terminal loops in an open β-hairpin conformation"},
      {"measurement": "rigid-body movement of ClpP monomer on ADEP1 binding", "setting": "E. coli ClpP [5]", "result": "1.5-2 Å"},
      {"measurement": "widening of interface between adjacent ClpP monomers", "setting": "E. coli ClpP [5]", "result": "about 1 Å"},
      {"measurement": "axial pore diameter of ClpP bound to ADEP1", "setting": "E. coli ClpP [5]; 1.9 Å, PDB 3MT6, apo 12 Å or less", "result": "~ 20 Å and 20 Å"},
      {"measurement": "binding site and contacts of ADEP1 on ClpP", "setting": "E. coli ClpP [5]; Figure 5B", "result": "binds in the hydrophobic groove that serves as the primary docking site for ClpP ATPases; also recorded: binds to a hydrophobic pocket on the outer edge of the apical surface of ClpP; also recorded: Tyr62 forms hydrogen bonds with both the phenylalanine and the alanine moieties of the compound; also recorded: the phenylalanine, β-methylproline and alanine moieties, as well as the aliphatic tail in ADEP1 are critical for binding, while the N-methylalanine and proline moieties have minimal interactions with the protein"},
      {"measurement": "stoichiometry of ADEP1 binding", "setting": "E. coli ClpP [5]; heptameric ring", "result": "one molecule of ADEP1 to each one of the seven hydrophobic clefts in the heptameric ring"},
      {"measurement": "limited proteolysis of ClpP by V8 protease", "setting": "ClpP N-terminal loop", "result": "significantly slower"},
      {"measurement": "degradation of β-casein compared with ClpA and ATP", "setting": "E. coli ClpP [6]; 37 °C", "result": "comparable to that observed when ClpA and ATP were present"},
      {"measurement": "pattern of β-casein degradation products (processivity)", "setting": "E. coli ClpP [6]", "result": "generated numerous partially degraded products"},
      {"measurement": "activation of F-V cleavage compared with ClpA", "setting": "E. coli ClpP [7]; F-V 1 mM, ClpP 1 μg/ml, 10 μM ADEP1 vs ClpA 10 μg/ml with 1 mM ATPγS, 37 °C, pH 8.0", "result": "comparable to the allosteric activation seen with ClpA"},
      {"measurement": "activity of ClpP alone relative to activity with ADEP1 present", "setting": "E. coli ClpP [7]; F-V cleavage, 10 μM ADEP1, average of two separate experiments", "result": "~ 2%"},
      {"measurement": "degradation of EGFP-SsrA by ClpP", "setting": "ClpP", "result": "not degraded"},
      {"measurement": "EC50", "setting": "E. coli ClpP [8]", "result": 370, "unit": "nM"}
    ]}
  ]
}
